Activity calls are given as the source filed them. No cut-off for these calls is given here.
Legend:
HeLa [1] = assay: Antiproliferative activity against human HeLa cells after 48 hrs by MTT assay; assay type: functional, cell-based
[2] = Inhibition of choline kinase in human HepG2 cells assessed as incorporation of [14C] from [methyl-14C]choline into phosphocholine after 20 mins by liquid scintillation counting analysis; assay type: cell-based
HeLa [3] = assay: Cell cycle arrest in human HeLa cells assessed as accumulation at G2/M phase at 10 uM after 24 hrs by FACS flow cytometric analysis (reference value: 3.9 +/- 0.10%); assay type: functional
HeLa [4] = assay: Cell cycle arrest in human HeLa cells assessed as accumulation at G0/G1 phase at 10 uM after 24 hrs by FACS flow cytometric analysis (reference value: 69.9 +/- 2.41%); assay type: functional
Choline kinase alpha = Choline kinase alpha (Homo sapiens, UniProt P35790); assay: Binding affinity to human CK-alpha1 by tryptophan fluorescence spectroscopic analysis
HeLa [5] = assay: Induction of apoptosis in human HeLa cells at 10 uM after 24 hrs by annexin V-FITC/propidium iodide staining-based FACS flow cytometric analysis; assay type: functional, cell-based
HeLa [6] = assay: Cell cycle arrest in human HeLa cells assessed as accumulation at S phase at 10 uM after 24 hrs by FACS flow cytometric analysis (reference value: 25 +/- 2.53%); assay type: functional
Homo sapiens = organism: Homo sapiens; assay: Selectivity ratio of Kd for human CK-beta to Kd for human CK-alpha1
[7] = target: Choline/ethanolamine kinase (Homo sapiens, UniProt Q9Y259); assay: Binding affinity to human CK-beta by tryptophan fluorescence spectroscopic analysis
HeLa [8] = assay: Induction of apoptosis in human HeLa cells assessed as upregulation of caspase-3 protein expression after 12 to 48 hrs by Western blot analysis; assay type: functional, cell-based
HeLa [9] = assay: Induction of apoptosis in human HeLa cells at 10 uM after 24 hrs by annexin V-FITC/propidium iodide staining-based FACS flow cytometric analysis (reference value: 14.8%); assay type: functional

Sequence of Choline kinase alpha (P35790 whole entry): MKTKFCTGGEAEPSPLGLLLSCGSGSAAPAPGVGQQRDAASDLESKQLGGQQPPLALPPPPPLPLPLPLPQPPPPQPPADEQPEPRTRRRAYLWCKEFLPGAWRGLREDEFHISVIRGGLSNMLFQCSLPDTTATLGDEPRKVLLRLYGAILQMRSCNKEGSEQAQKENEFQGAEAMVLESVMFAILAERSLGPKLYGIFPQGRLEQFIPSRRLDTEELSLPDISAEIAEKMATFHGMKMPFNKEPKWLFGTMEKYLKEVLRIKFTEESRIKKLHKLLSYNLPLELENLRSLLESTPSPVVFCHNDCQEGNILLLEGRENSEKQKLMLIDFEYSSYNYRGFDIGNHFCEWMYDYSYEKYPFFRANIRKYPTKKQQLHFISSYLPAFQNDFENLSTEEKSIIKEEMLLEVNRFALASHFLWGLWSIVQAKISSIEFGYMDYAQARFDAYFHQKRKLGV
Sequence of Choline/ethanolamine kinase (Q9Y259 whole entry): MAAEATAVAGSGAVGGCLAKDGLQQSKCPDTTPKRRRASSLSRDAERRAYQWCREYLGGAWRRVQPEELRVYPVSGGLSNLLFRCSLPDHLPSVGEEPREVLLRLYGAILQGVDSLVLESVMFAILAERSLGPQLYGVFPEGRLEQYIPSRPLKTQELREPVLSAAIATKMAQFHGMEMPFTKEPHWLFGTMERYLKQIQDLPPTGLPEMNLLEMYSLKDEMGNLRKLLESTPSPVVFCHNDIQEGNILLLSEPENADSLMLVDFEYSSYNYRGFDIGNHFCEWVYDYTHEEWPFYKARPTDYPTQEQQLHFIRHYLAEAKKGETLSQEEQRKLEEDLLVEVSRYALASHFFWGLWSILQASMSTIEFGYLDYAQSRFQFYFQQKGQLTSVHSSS

| IC50 (HeLa [1]) | IC50 [2] [µM] | Kd (Choline kinase alpha) [µM] | Selectivity ratio (Homo sapiens) | Kd [7] [µM] | SMILES | Activity (HeLa [3]) [%] | Activity (HeLa [4]) [%] | Activity (HeLa [5]) | Activity (HeLa [6]) [%] | Activity (HeLa [8]) | Activity (HeLa [9]) [%] |
| --- | --- | --- | --- | --- | --- | --- | --- | --- | --- | --- | --- |
| 24.6 µM | 0.9 | – | – | – | CN(C)c1cc[n+](Cc2ccc(C[n+]3ccc(N(C)c4ccc(Cl)cc4)cc3)cc2)cc1 | – | – | – | – | – | – |
| 8.6 µM | 1.2 | 0.4 | – | – | CN(C)c1cc[n+](Cc2ccc(CCc3ccc(C[n+]4ccc(N5CCCC5)cc4)cc3)cc2)cc1.[Br-].[Br-] | 2.6 | 72.5 | Active | 24.9 | – | – |
| 1.9 µM | 1.2 | – | 200 | 22 | CN(C)c1cc[n+](Cc2ccc(CCCCc3ccc(C[n+]4ccc(N(C)c5ccc(Cl)cc5)cc4)cc3)cc2)cc1.[Br-].[Br-] | 0.9 | 85.9 | Active | 12.8 | Dose-dependent effect | 55.6 |
| 3.7 µM | 0.8 | – | – | – | CN(C)c1cc[n+](Cc2ccc(-c3ccc(C[n+]4ccc(N5CCCC5)cc4)cc3)cc2)cc1.[Br-].[Br-] | 2.7 | 72.8 | Active | 24.5 | – | – |
| 2.1 µM | 1.5 | – | – | – | CN(c1ccc(Cl)cc1)c1cc[n+](Cc2ccc(CCCCc3ccc(C[n+]4ccc(N5CCCC5)cc4)cc3)cc2)cc1.[Br-].[Br-] | 1.3 | 83.3 | Active | 15.4 | – | – |
| 4.1 µM | 2.2 | – | – | – | CN(c1ccc(Cl)cc1)c1cc[n+](Cc2ccc(-c3ccc(C[n+]4ccc(N5CCCC5)cc4)cc3)cc2)cc1.[Br-].[Br-] | 3.1 | 73.1 | Active | 23.8 | – | – |
| 48.1 µM | 0.6 | – | – | – | CN(c1ccc(Cl)cc1)c1cc[n+](Cc2ccc(C[n+]3ccc(N4CCCC4)cc3)cc2)cc1 | – | – | – | – | – | – |
| 1.3 µM | 0.7 | – | – | – | CN(C)c1cc[n+](Cc2ccc(CCc3ccc(C[n+]4ccc(N(C)c5ccc(Cl)cc5)cc4)cc3)cc2)cc1.[Br-].[Br-] | 1.8 | 83.3 | Active | 14.9 | – | – |
| 11.7 µM | 1.5 | 0.62 | – | – | CN(C)c1cc[n+](Cc2ccc(-c3ccc(C[n+]4ccc(N(C)c5ccc(Cl)cc5)cc4)cc3)cc2)cc1 | – | – | – | – | – | – |
| 2.1 µM | 0.9 | – | – | – | CN(C)c1cc[n+](Cc2ccc(CCCCc3ccc(C[n+]4ccc(N5CCCC5)cc4)cc3)cc2)cc1.[Br-].[Br-] | 2.8 | 77.8 | Active | 19.2 | – | – |
| 8 ng/mL | – | – | – | – | CC(=O)O[C@H]1C(=O)[C@@]2(C)[C@H]([C@H](OC(=O)c3ccccc3)[C@]3(O)C[C@H](OC(=O)[C@H](O)[C@@H](NC(=O)c4ccccc4)c4ccccc4)C(C)=C1C3(C)C)[C@]1(OC(C)=O)CO[C@@H]1C[C@@H]2O [PACLITAXEL] | – | – | – | – | Dose-dependent effect | – |
| 15.9 µM | 8 | – | – | – | CN(C)c1cc[n+](Cc2ccc(C[n+]3ccc(N4CCCC4)cc3)cc2)cc1 | – | – | – | – | – | – |
| 9.4 µM | 2.5 | – | – | – | CN(c1ccc(Cl)cc1)c1cc[n+](Cc2ccc(CCc3ccc(C[n+]4ccc(N5CCCC5)cc4)cc3)cc2)cc1.[Br-].[Br-] | 2.2 | 77 | Active | 20.8 | – | – |
